Assay results reported in ChEMBL document CHEMBL5625212, “De novo designed self-assembling helicomimetic lipooligoureas with antibacterial activity” (Eur J Med Chem, 2023).
Converted amounts (≈) assume the structure as drawn.

Columns and labels:
[1] = Aggregation property of compound in PBS assessed as critical aggregation concentration; assay type: physicochemical; details: buffer
Enterococcus faecalis = experiment: Antibacterial activity against Enterococcus faecalis ATCC 14506 assessed as reduction in bacterial growth measured after 24 hrs by spectrophotometer based analysis; assay type: functional
Staphylococcus aureus [2] = experiment: Antibacterial activity against Staphylococcus aureus ATCC 29213 assessed as reduction in bacterial growth measured after 24 hrs by spectrophotometer based analysis; assay type: functional
Staphylococcus aureus [3] = experiment: Antibacterial activity against methicillin resistant Staphylococcus aureus 401/5 assessed as reduction in bacterial growth measured after 24 hrs by spectrophotometer based analysis; assay type: functional
Staphylococcus aureus [4] = experiment: Antibacterial activity against methicillin resistant Staphylococcus aureus 4811/13 assessed as reduction in bacterial growth measured after 24 hrs by spectrophotometer based analysis; assay type: functional
Staphylococcus aureus [5] = experiment: Antibacterial activity against methicillin resistant Staphylococcus aureus 5288/13 assessed as reduction in bacterial growth measured after 24 hrs by spectrophotometer based analysis; assay type: functional
[6] = tested on: Staphylococcus epidermidis; experiment: Antibacterial activity against Staphylococcus epidermidis ATCC 12228 assessed as reduction in bacterial growth measured after 24 hrs by spectrophotometer based analysis; assay type: functional
[7] = Proteolytic stability of the compound in human serum assessed as drug degradation measured after 96 hrs by RP-HPLC analysis; assay type: ADME, cell-free; details: read-out: Drug degradation
Escherichia coli = experiment: Antibacterial activity against Escherichia coli ST2-8624 O157 H7 assessed as reduction in bacterial growth measured after 24 hrs by spectrophotometer based analysis; assay type: functional
Klebsiella pneumoniae = experiment: Antibacterial activity against Klebsiella pneumoniae PCM 1 assessed as reduction in bacterial growth measured after 24 hrs by spectrophotometer based analysis; assay type: functional
Pseudomonas aeruginosa = experiment: Antibacterial activity against Pseudomonas aeruginosa PA01 PCM 499 assessed as reduction in bacterial growth measured after 24 hrs by spectrophotometer based analysis; assay type: functional
Salmonella typhimurium = experiment: Antibacterial activity against Salmonella enterica subsp. enterica serovar Typhimurium TT622 assessed as reduction in bacterial growth measured after 24 hrs by spectrophotometer based analysis; assay type: functional
Yersinia enterocolitica = experiment: Antibacterial activity against Yersinia enterocolitica PCM 2081 assessed as reduction in bacterial growth measured after 24 hrs by spectrophotometer based analysis; assay type: functional
[8] = Proteolytic stability of the compound in human serum assessed as drug degradation measured within 4 hrs by RP-HPLC analysis; assay type: ADME, cell-free
[9] = Proteolytic stability of the compound in human serum assessed as drug degradation measured after 24 hrs by RP-HPLC analysis; assay type: ADME, cell-free; details: read-out: Drug degradation

| Compound | CAC [1] [µM] | MIC (Enterococcus faecalis) [µg/mL] | MIC (Staphylococcus aureus [2]) [µg/mL] | MIC (Staphylococcus aureus [3]) [µg/mL] | MIC (Staphylococcus aureus [4]) [µg/mL] | MIC (Staphylococcus aureus [5]) [µg/mL] | MIC [6] [µg/mL] | metabolised at 96 h [7] [%] | MIC (Escherichia coli) [µg/mL] | MIC (Klebsiella pneumoniae) [µg/mL] | MIC (Pseudomonas aeruginosa) [µg/mL] | MIC (Salmonella typhimurium) [µg/mL] | MIC (Yersinia enterocolitica) [µg/mL] | Stability [8] | metabolised at 24 h [9] [%] |
| --- | --- | --- | --- | --- | --- | --- | --- | --- | --- | --- | --- | --- | --- | --- | --- |
| CCCCCCCCCC(=O)N[C@H](CNC(=O)N[C@@H](CCN)CNC(=O)N[C@@H](CCN)CN[C@H](CNC(=O)N[C@@H](CCN)CNC(N)=O)CC(C)C)Cc1ccccc1 | 87 | 40 (≈ 48 µM) | 20 (≈ 24 µM) | 20 (≈ 24 µM) | 30 (≈ 36 µM) | 30 (≈ 36 µM) | 20 (≈ 24 µM) | 8 |  |  |  |  |  |  |  |
| CCCCCCCCCC(=O)N[C@H](CNC(=O)N[C@@H](CCN)CNC(=O)N[C@@H](CCN)CN[C@H](CNC(=O)N[C@H](CNC(N)=O)CC(C)C)CC(C)C)Cc1ccccc1 | 56 | 20 (≈ 23.6 µM) | 10 (≈ 11.8 µM) | 10 (≈ 11.8 µM) | 10 (≈ 11.8 µM) | 10 (≈ 11.8 µM) | 10 (≈ 11.8 µM) | 8 | 30 (≈ 35.4 µM) | 30 (≈ 35.4 µM) | 30 (≈ 35.4 µM) | 30 (≈ 35.4 µM) | 30 (≈ 35.4 µM) |  |  |
| NC(=O)[C@H](Cc1ccccc1)NC(=O)[C@H](Cc1ccccc1)NC(=O)[C@@H]1CCCN1C(=O)[C@@H](N)Cc1ccc(O)cc1 [ENDOMORPHIN 2] |  |  |  |  |  |  |  |  |  |  |  |  |  | Unstable |  |
| CCCCCCCCCC(=O)N[C@H](CNC(=O)N[C@@H](CCN)CNC(=O)N[C@H](CN[C@H](CNC(=O)N[C@@H](CCN)CNC(N)=O)CC(C)C)CC(C)C)Cc1ccccc1 | 40 | 5 (≈ 5.9 µM) | 5 (≈ 5.9 µM) | 5 (≈ 5.9 µM) | 5 (≈ 5.9 µM) | 5 (≈ 5.9 µM) | 5 (≈ 5.9 µM) | 8 | 10 (≈ 11.8 µM) | 20 (≈ 23.6 µM) | 10 (≈ 11.8 µM) | 20 (≈ 23.6 µM) | 10 (≈ 11.8 µM) |  | 4 |
| CCCCCCCCCC(=O)N[C@@H](Cc1c[nH]c2ccccc12)C(=O)N[C@H](CC(N)=O)C(=O)N[C@@H](CC(=O)O)C(=O)N[C@@H]1C(=O)NCC(=O)N[C@@H](CCCN)C(=O)N[C@@H](CC(=O)O)C(=O)N[C@H](C)C(=O)N[C@@H](CC(=O)O)C(=O)NCC(=O)N[C@H](CO)C(=O)N[C@@H]([C@H](C)CC(=O)O)C(=O)N[C@@H](CC(=O)c2ccccc2N)C(=O)O[C@@H]1C |  | 3.5 (≈ 2.16 µM) | 2 (≈ 1.23 µM) | 1.5 (≈ 0.926 µM) | 2 (≈ 1.23 µM) | 2 (≈ 1.23 µM) | 1 (≈ 0.617 µM) |  |  |  |  |  |  |  |  |
| CCCCCCCCCC(=O)N[C@H](CNC(=O)N[C@@H](CCCCN)CNC(=O)N[C@@H](CCCCN)CN[C@H](CNC(=O)N[C@@H](CCCCN)CNC(N)=O)CC(C)C)Cc1ccccc1 | 79 |  | 30 (≈ 32.7 µM) | 30 (≈ 32.7 µM) | 30 (≈ 32.7 µM) | 40 (≈ 43.6 µM) | 30 (≈ 32.7 µM) | 15 |  |  |  |  |  |  |  |
